Experimental data from patent US20160220567A1, “COMPOSITION FOR TREATING OR PREVENTING BONE DISEASES, COMPRISING HALOFUGINONE AS ACTIVE INGREDIENT” (THE CATHOLIC UNIVERSITY OF KOREA INDUSTRY-ACADEMIC …, priority 2013, published 2016).

Experiments:
[1] = system: Th17- and Treg cells in splenocytes; experiment: Th17 and Treg cells, pSTAT3 and pSTAT5 in splenocytes of CIA mice by immunostaining and confocal microscope; format: in vivo, mouse
Experimental: For the construction of a mouse model with collagen-induced arthritis (hereinafter, referred to as “CIA”), a 6-week old male DBA/1J mouse was subjected to primary immunization by intradermal injection after mixing the bovine type II collagen (hereinafter, referred to as “CII”) and complete Freud's adjuvant (CFA) in an amount of 100 μL, respectively. After a week thereafter, halofuginone was injected intraperitoneally at 3 day intervals at a concentration of 100 μg/kg and 500 μg/kg, respectively (9 weeks).
To examine the effect of halofuginone treatment in an animal model on Th17 and Treg factors, the measurement was performed using a confocal microscope after the immunostaining. Specifically, the spleens of the mice in the experimental group and control group in Examples were collected and embedded with an OCT compound, and the tissues rapidly cooled using liquid nitrogen were sliced into a thickness of 7 μm using a cryo microtome, and attached to slides. The sliced sections attached to the slides were fixed with acetone, and non-specific binding was blocked by reacting with 10% normal goat serum for 30 minutes. The first antibodies, i.e., FITC-labeled anti-Foxp3 Ab, PElabeled anti-IL-17 Ab APC-labeled anti-CD4 Ab, Allophycocyanin-labeled anti-CD25 Ab (Biolegend), biotinylated anti-CD4 Ab (BD Biosciences, San Jose, Calif., USA), were diluted in PBS (pH 7.5) at a 1:100 ratio and reacted at 4° C. overnight. On the next day, the resultant was washed with PBS and reacted with streptavidin cy-3 at room temperature for 2 hours. The stained tissues were analyzed using a confocal microscope (LSM 510 Meta. Zeiss, Gottingen, Germany), and the number of IL-17+ cells and Foxp3+ cells were scored under a microscopic observation, and the results are shown in graphs. Meanwhile, pSTAT3 and pSTAT5 were immunostained in the same manner as described above and the measurement was performed using a confocal microscope, and in particular, PE-conjugated anti-phospho-Stat3 (Y705 and S727; 1:50), and Alexa Fluor 488-conjugated anti-phospho-Stat5 (Y694; 1:100) (all from BD Biosciences) antibodies were used.

[2] = system: osteoclasts from murine bone marrow cells; experiment: Bone resorption potential by osteoclasts on Dentine slice, murine bone marrow cells; format: cell-based, mouse; conditions: M-CSF, RANKL, 21 days, FIG. 5B
Experimental: To examine the effect of halofuginone on the bone resorption potential by osteoclasts, murine bone marrow cells were cultured in Dentine slice, and the cultured cells were stimulated with M-CSF, RANKL, and halofuginone, and cultured for 21 additional days. Then, the cells were removed using 5% sodium hypochlorite solution, subjected to Hematoxylin staining, and the bone resorption lacunae formed by the bone resorption of osteoclasts were photographed.

[3] = system: ERK of Th17 cells; experiment: pERK expression in Th17 cells by western blotting; format: cell-based, mouse; conditions: Th17 cells stimulated with halofuginone, FIG. 3C
Experimental: To examine whether halofuginone activates the ERK of Th17 cells, western blotting was performed for pERK in the cells under the condition of Example <2-1>. To this end, the Th17 cells were lysed in a lysis buffer [20 mM Tris-HCl (pH 7.5), 150 mM NaCl, 1% Triton X-100, 1 mM EDTA, 1 mM EGTA, 1 mM phenylmethylsulfonyl fluoride, 10 mM β-glycerophosphate, 1 mM NaF, 1 mM Na3VO4, and 19 Protease Inhibitow Cocktail™ (Roche Molecular Biochemicals, Indianapolis, Ind., USA)]. From the lysate, an equal amount of the protein (about 20 μg) was separated by sodium dodecyl sulfate-polyacrylamide gel electrophoresis and then transferred to a nitrocellulose membrane. Then, the blots were probed with NFATc1 and phospho-Smad2/3 (all from Santa Cruz Biotechnology), Stat3, Stat5, ERK, phospho-Stat3, phospho-stat5, and phospho-ERK (all from Cell Signaling Technology), and β-actin (Sigma) antibodies, and confirmed by ECL (Amersham, Del., USA).

[4] = CD4+ cells of splenocytes of CIA mice, immunostaining
[5] = splenocytes of CIA mice injected with halofuginone, FIG. 2A

O=C(C[C@H]1NCCC[C@@H]1O)Cn1cnc2cc(Br)c(Cl)cc2c1=O (racemic) [halofuginone]
expression of pSTAT3 [1, 4]: decreased | expression of pSTAT5 [1, 4]: increased | number of Th17 cells [1, 5]: decreased | number of Treg cells [1, 5]: increased | bone resorption potential [2]: significantly reduced | expression of pERK [3]: increased
